Experimental data from PubChem BioAssay AID1919016 (Molecular Pharmacology Branch, DTP, NCI, 2023).
pIC50: −log10 of the molar value. “And” between values parts separate entries of the source, which are not always exact repeats. Equal entries are not always repeated.

Tested on: NCI-H196 complex spheroid growth, percent test/control
Test: Anticancer human tumor NCI-H196 cell line growth inhibition [AhR];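 note: seven days of drug exposure starting three days after plating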;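 for viability, T/C: 100% = DMSO vehicle control wells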
Settings: for viability, T/C: stronger effect = lower value
In short: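 Spheroids combined tumor cells with HUVEC endothelial cells and human MSCs as stroma. AhR antagonists were paired with standard or investigational drugs, each dosed in half-log steps down from near clinical Cmax, or from 10 microM where Cmax was unknown.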

[1] = curve of first compound, second compound 0.1 µM
[2] = curve of first compound, second compound 0.316 µM
[3] = curve of first compound, second compound 1 µM
[4] = curve of first compound, second compound 3.16 µM
[5] = curve of first compound, second compound 10 µM

## Nc1ncn(C2CC(O)C(CO)S2)c(=O)n1 (stereo unspecified) + Cc1cncc(-c2nc(NCCc3c[nH]c4ccccc34)c3ncn(C(C)C)c3n2)c1
[1]
  pIC50: < 6.52
[2]
  pIC50: < 6.52
[3]
  pIC50: < 6.52
[4]
  pIC50: < 6.52
[5]
  pIC50: < 6.52
Second compound 0.1 µM, first compound 0.000949 µM
  viability, T/C: 109%
Second compound 0.1 µM, first compound 0.003 µM
  viability, T/C: 112%
Second compound 0.1 µM, first compound 0.00949 µM
  viability, T/C: 109%
Second compound 0.1 µM, first compound 0.03 µM
  viability, T/C: 111%
Second compound 0.1 µM, first compound 0.0949 µM
  viability, T/C: 118%
Second compound 0.1 µM, first compound 0.3 µM
  viability, T/C: 116%
Second compound 0.316 µM, first compound 0.000949 µM
  viability, T/C: 101%
Second compound 0.316 µM, first compound 0.003 µM
  viability, T/C: 110%
Second compound 0.316 µM, first compound 0.00949 µM
  viability, T/C: 113%
Second compound 0.316 µM, first compound 0.03 µM
  viability, T/C: 112%
Second compound 0.316 µM, first compound 0.0949 µM
  viability, T/C: 115%
Second compound 0.316 µM, first compound 0.3 µM
  viability, T/C: 111%
Second compound 1 µM, first compound 0.000949 µM
  viability, T/C: 107%
Second compound 1 µM, first compound 0.003 µM
  viability, T/C: 110%
Second compound 1 µM, first compound 0.00949 µM
  viability, T/C: 108%
Second compound 1 µM, first compound 0.03 µM
  viability, T/C: 116%
Second compound 1 µM, first compound 0.0949 µM
  viability, T/C: 121%
Second compound 1 µM, first compound 0.3 µM
  viability, T/C: 123%
Second compound 3.16 µM, first compound 0.000949 µM
  viability, T/C: 118%
Second compound 3.16 µM, first compound 0.003 µM
  viability, T/C: 125%
Second compound 3.16 µM, first compound 0.00949 µM
  viability, T/C: 115%
Second compound 3.16 µM, first compound 0.03 µM
  viability, T/C: 114%
Second compound 3.16 µM, first compound 0.0949 µM
  viability, T/C: 116%
Second compound 3.16 µM, first compound 0.3 µM
  viability, T/C: 117%
Second compound 10 µM, first compound 0.000949 µM
  viability, T/C: 92.3%
Second compound 10 µM, first compound 0.003 µM
  viability, T/C: 92.9%
Second compound 10 µM, first compound 0.00949 µM
  viability, T/C: 101%
Second compound 10 µM, first compound 0.03 µM
  viability, T/C: 101%
Second compound 10 µM, first compound 0.0949 µM
  viability, T/C: 93.8%
Second compound 10 µM, first compound 0.3 µM
  viability, T/C: 106%

## COc1cc(C2c3cc4c(cc3C(OC3OC5COC(C)OC5C(O)C3O)C3COC(=O)C23)OCO4)cc(OC)c1O (stereo unspecified)
Compound 0.0316 µM
  viability, T/C: 114% and 96.5% and 94.6%
Compound 0.1 µM
  viability, T/C: 103% and 110% and 111%
Compound 0.316 µM
  viability, T/C: 122% and 107% and 91.5%
Compound 1 µM
  viability, T/C: 94.3% and 121% and 94.5%
Compound 3.16 µM
  viability, T/C: 93.5% and 114% and 91.3%
Compound 10 µM
  viability, T/C: 90.1% and 89.2% and 76.2%
Curve of compound
  pIC50: < 5.00

## COc1cc(Nc2ncc3c(n2)-c2ccc(Cl)cc2C(c2c(F)cccc2OC)=NC3)ccc1C(=O)O
Compound 0.0316 µM
  viability, T/C: 91.6% and 84.6% and 104%
Compound 0.1 µM
  viability, T/C: 92.1% and 90.5% and 106%
Compound 0.316 µM
  viability, T/C: 109% and 92.9% and 107%
Compound 1 µM
  viability, T/C: 117% and 90.2% and 116%
Compound 3.16 µM
  viability, T/C: 114% and 120% and 121%
Compound 10 µM
  viability, T/C: 125% and 108% and 132%
Curve of compound
  pIC50: < 5.00

## Nc1ccccc1NC(=O)c1ccc(CNC(=O)OCc2cccnc2)cc1 + CC(CO)NC(=O)c1cc(-c2ccc(Cl)cc2)nn(-c2cnn(C)c2)c1=O
[1]
  pIC50: 6.29
[2]
  pIC50: 6.28
[3]
  pIC50: 6.28
[4]
  pIC50: 6.22
[5]
  pIC50: 6.23
Second compound 0.1 µM, first compound 0.0316 µM
  viability, T/C: 80.5%
Second compound 0.1 µM, first compound 0.1 µM
  viability, T/C: 81.1%
Second compound 0.1 µM, first compound 0.316 µM
  viability, T/C: 62.6%
Second compound 0.1 µM, first compound 1 µM
  viability, T/C: 29.9%
Second compound 0.1 µM, first compound 3.16 µM
  viability, T/C: 15.4%
Second compound 0.1 µM, first compound 10 µM
  viability, T/C: 0.46%
Second compound 0.316 µM, first compound 0.0316 µM
  viability, T/C: 87.5%
Second compound 0.316 µM, first compound 0.1 µM
  viability, T/C: 81.5%
Second compound 0.316 µM, first compound 0.316 µM
  viability, T/C: 61.6%
Second compound 0.316 µM, first compound 1 µM
  viability, T/C: 33.7%
Second compound 0.316 µM, first compound 3.16 µM
  viability, T/C: 12.8%
Second compound 0.316 µM, first compound 10 µM
  viability, T/C: 0.5%
Second compound 1 µM, first compound 0.0316 µM
  viability, T/C: 87.9%
Second compound 1 µM, first compound 0.1 µM
  viability, T/C: 79.3%
Second compound 1 µM, first compound 0.316 µM
  viability, T/C: 63.2%
Second compound 1 µM, first compound 1 µM
  viability, T/C: 32.9%
Second compound 1 µM, first compound 3.16 µM
  viability, T/C: 14.5%
Second compound 1 µM, first compound 10 µM
  viability, T/C: 0.63%
Second compound 3.16 µM, first compound 0.0316 µM
  viability, T/C: 85.6%
Second compound 3.16 µM, first compound 0.1 µM
  viability, T/C: 89.4%
Second compound 3.16 µM, first compound 0.316 µM
  viability, T/C: 65.3%
Second compound 3.16 µM, first compound 1 µM
  viability, T/C: 34.7%
Second compound 3.16 µM, first compound 3.16 µM
  viability, T/C: 15.3%
Second compound 3.16 µM, first compound 10 µM
  viability, T/C: 0.42%
Second compound 10 µM, first compound 0.0316 µM
  viability, T/C: 91.7%
Second compound 10 µM, first compound 0.1 µM
  viability, T/C: 87.5%
Second compound 10 µM, first compound 0.316 µM
  viability, T/C: 74.1%
Second compound 10 µM, first compound 1 µM
  viability, T/C: 29.2%
Second compound 10 µM, first compound 3.16 µM
  viability, T/C: 12.9%
Second compound 10 µM, first compound 10 µM
  viability, T/C: 0.86%

## O=C(C=Cc1cccc(S(=O)(=O)Nc2ccccc2)c1)NO
Compound 0.0316 µM
  viability, T/C: 93.5% and 93.7% and 104%
Compound 0.1 µM
  viability, T/C: 107% and 95.2% and 101%
Compound 0.316 µM
  viability, T/C: 78.8% and 87.2% and 93.9%
Compound 1 µM
  viability, T/C: 61.2% and 73.3% and 75.5%
Compound 3.16 µM
  viability, T/C: 21.6% and 27.8% and 22.7%
Compound 10 µM
  viability, T/C: 0.64% and 0.72% and 0.55%
Curve of compound
  pIC50: 5.88 and 5.75 and 5.76
